Calls of active or inactive are those of the source. The rule behind the calls is not given here.

In this assay the test system is S. cerevisiae SKN7-toxicity growth rescue, plate reader. Description: Yeast SKN7 toxicity growth rescue counterscreen, Saccharomyces cerevisiae, plate reader, dose confirmatory (AID 624258).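 Note: growth read after three days of incubation at 30 °C.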
For `CCN=c1scc(C)n1/N=C/c1ccc(O)c(O)c1O`, the AC40 is 7.51 µM.
The figure for `O=C(CSc1ccc(-c2ccccn2)nn1)c1ccccc1` is 1.22 µM; for `O=C(N/N=C/c1sc(N2CCOCC2)nc1-c1ccccc1)c1ccccc1O` it is 3.04 µM.
Next, `CC(C)CN=Cc1c(O)c([N+](=O)[O-])cc2oc3c(c12)CCCC3`: 1.25 µM; `COc1cccc(C(=O)N/N=C(/c2ccccc2)c2ccccn2)c1`: 3.84 µM.
Take `Cc1ccc(C)c(NS(=O)(=O)c2cc(C(=O)N3CCc4ccccc4C3)ccc2Cl)c1`: the AC40 is 6.58 µM.
With `COc1cccc(Oc2cncnc2-c2ccc(OC)cc2O)c1`, the AC40 is 18.9 µM.
The figure for `CCCCCCCCCCn1c2c(c(=N)c3c1CCC3)CCC2` is > 6.8 µM (inactive).
As to `Cc1cccc2sc(NNC(=O)c3ccc(S(=O)(=O)N4CC(C)CC(C)C4)cc3)nc12` (stereo unspecified), the AC40 was 0.736 µM.
Next, `Cc1ccc(C(=O)Sc2cccccc2=O)cc1`: 0.322 µM; `CCc1oc2ccccc2c1C(=O)c1cc(Br)c(O)c(Br)c1`: 0.912 µM; `O=c1c(=Nc2ccccc2O)c(=O)c2ccccc12`: 1.06 µM.
With `Cc1[nH]n(-c2ccccc2)c(=O)c1/C=N/Nc1nncc(-c2ccccc2)n1`, the AC40 is 1.11 µM.
The figure for `O=C(N/N=C(\c1ccccc1)c1cccnc1)c1cccc(F)c1` is 1.12 µM; for `CC(=O)c1ccc(Sc2ccccc2)c([N+](=O)[O-])c1` it is > 19.5 µM (inactive).
The figure for `CC(C)(C)C(=O)C(Oc1ccc(Cl)cc1)n1cncn1` (stereo unspecified) is 2.02 µM; for `Cc1nn(CCC(N)=S)c2nc(-c3cccs3)cc(C(F)(F)F)c12` it is 14.1 µM; for `Fc1ccc(CCNC(=S)Nc2ccc(F)c(Cl)c2)cc1` it is 3.7 µM.
In the case of `CCCNC(=O)c1ccc2c(=O)c(O)c(-c3ccc(F)cc3)[nH]c2c1`, the AC40 was 2.31 µM.
Next, `Cc1cc(Cl)ccc1OCC(=O)NCCCCc1ccccc1`: 8.43 µM; `Cc1ccccc1OCC(O)Cn1c2ccccc2c2ccccc21` (stereo unspecified): 3.61 µM; `C=CS(=O)(=O)c1ccc(Oc2ccc(S(=O)(=O)C=C)cc2)cc1`: 7.95 µM.
With `Cc1ccnc(NC(c2ccsc2)c2ccc3ccc(C)nc3c2O)c1` (stereo unspecified), the AC40 is 6.7 µM.
The figure for `CCS(=O)(=O)c1ccc(N=Nc2ccc(O)c3ncccc23)c(OC)c1` is 3.56 µM; for `O=C1c2ccccc2NC(c2ccc(-c3ccc(C(F)(F)F)cc3)o2)N1O` (stereo unspecified) it is 1.71 µM.
With `CCCCCCCN1N=C(C)C(C(=O)c2ccccc2)C1=O` (stereo unspecified), the AC40 was 0.764 µM.
The figure for `Cc1cc(C)c(C(N)=O)c(Nc2cccc3ccccc23)n1` is > 19.5 µM (inactive); for `CCN(CC)c1ccc(/C=N/NC(=O)c2c(Cl)cnn2C)c(O)c1` it is 0.878 µM.
On to `COc1ccc(C(=O)NC(=S)NNC(=O)CCc2ccccc2)cc1`, for which the AC40 was 1.42 µM.
Next, `CCOC(=O)c1ccc(NC(=O)CC2C(=O)OCCN2CC)cc1` (stereo unspecified): 4.89 µM; `COc1ccc2c(c1)OC[C@H]1[C@H]2N2C(=O)c3cc(Cl)ccc3NC(=O)[C@@]2(C)[C@H]1c1ccccc1`: 10.8 µM; `O=C(CSc1nc2ccccc2s1)N/N=C/c1cc([N+](=O)[O-])ccc1O`: 3.97 µM.
The figure for `CN(C)S(=O)(=O)c1cccc(NC(=S)NNC(=O)c2cc3ccccc3cc2O)c1` is 1.27 µM; for `Cc1ccc(C(C)(C)C)cc1S(=O)(=O)Nc1ncnc2sccc12` it is 1.15 µM; for `O=C(Nc1cccc(-c2nc3ccccc3s2)c1)c1cccs1` it is 1.34 µM.
For `CCn1c(=O)oc2cc(NC(=O)CCl)ccc21`, the AC40 is 18.2 µM.
Next, `CCC(Oc1ccccc1)C(=O)Nc1ncc([N+](=O)[O-])s1` (stereo unspecified): 0.668 µM; `CC(=O)c1c(C)oc2c1C(=O)c1ccccc1C2=O`: 1.92 µM; `Cc1cc(C(=O)N/N=C/c2ccc(O)c(O)c2O)c(C)n1-c1ccccc1`: 1.36 µM.
The figure for `CCCCOc1ccc2c(c1)C(=O)c1cc(O)ccc1-2` is 1.93 µM; for `Cc1ccc(NC2(c3nnnn3-c3c(C)cccc3C)CCCCC2)cc1` it is > 19.5 µM (inactive).
Regarding `Cc1ccc(C2(c3ccc(C)cc3)CC2C(=O)Nc2ccc([N+](=O)[O-])cc2O)cc1` (stereo unspecified), the AC40 is 6.78 µM.
The figure for `COc1ccc(CSCC(=O)Nc2ccc(S(=O)(=O)N3CCCCCC3)cc2)cc1` is 6.93 µM.
Next, `O=c1[nH][nH]cc1C=Nc1ccccc1O`: 2.18 µM; `CC(NCCN(C)C)C1CCC2C3CCc4cc(O)ccc4C3CCC12C` (stereo unspecified): 0.126 µM.
Next, `COc1ccc2c(c1)S/C(=C\C(=O)c1ccncc1)N2C`: 1.76 µM.
Regarding `O=C(N[C@@H](Cc1ccccc1)C(=O)CCl)OCc1ccccc1`, the AC40 was 1.14 µM.
On to `O=C(Oc1cc2oc(=O)cc(-c3ccccc3)c2cc1Cl)C1CCCCC1`, for which the AC40 is 8.04 µM.
Next, `O=C(O)c1cccc(NN=C2c3ccccc3-c3ccccc32)c1`: 3.11 µM.
Next, `O=[N+]([O-])c1ccc(N=Nc2ncc[nH]2)cc1`: 6.08 µM; `Cc1nn2c(-c3ccncc3)nnc2c2ccccc12`: > 6.8 µM (inactive).
Next, `Cc1nc2ccc(NC(=O)COc3cccc(F)c3)cc2s1`: 1.43 µM; `Cc1onc(-c2ccccc2)c1C(=O)NC(=S)NNC(=O)c1cc(-c2ccc(F)cc2)n[nH]1`: 2.1 µM.
In the case of `CC(C)(C)c1ccc(Oc2ccc(N)cc2)cc1`, the AC40 was 1.95 µM.
Next, `Cc1[nH]n(-c2cccc3ccccc23)c(=O)c1/C=N/NC(=O)c1cccc([N+](=O)[O-])c1`: 0.738 µM; `N/C(Cc1ccc(Cl)cc1Cl)=N\OC(=O)c1ccc(Br)o1`: 0.746 µM; `COc1cccc2c1C(=O)c1c(O)c3c(c(O)c1C2=O)C[C@@](O)(C(=O)CO)C[C@@H]3O[C@H]1C[C@H](N)[C@H](O)[C@H](C)O1`: 6.21 µM.
Next, `CCOC(=O)c1c(C)oc2c1C(=O)c1ccccc1C2=O`: 2.28 µM; `c1c[nH]c(CN2CCN(Cc3ncc[nH]3)CC2)n1`: 1.7 µM.
For `O=C(Cc1ccccc1F)Nc1nc(-c2ccc(F)c(F)c2)cs1`, the AC40 was 2.54 µM.
Next, `CC1CC(C)CC(C)C(O)C(C#N)=CC=CCC(C2CCCC2C(=O)O)OC(=O)CC(O)C(C)C1` (stereo unspecified): 10.3 µM; `N=c1c2c(-c3ccccc3)c(-c3ccccc3)n(Cc3ccco3)c2ncn1CCCn1ccnc1`: 2.92 µM.
The figure for `Nc1c(Cl)ncnc1N/N=C/c1ccc2ccccc2n1` is 4.34 µM.
Next, `Cc1nc(SCC(=O)N2CCN(c3ccccc3)CC2)c2oc3ccccc3c2n1`: 3.53 µM; `O=Nc1c(O)n(Cc2ccc(Cl)c(Cl)c2)c2ccccc12`: 8.74 µM; `O=C1/C(=C/c2cccs2)SC(=S)N1NS(=O)(=O)c1ccccc1`: 3.71 µM.
Regarding `Cc1cccc(C)c1N=Nc1c(C)cc(O)cc1C`, the AC40 was 1.12 µM.
Next, `N#C/C(=C\Nc1ccccc1O)c1nc2ccccc2o1`: 1.12 µM; `S=c1[nH]nc(-c2ccco2)n1/N=C/C(Cl)=C/c1ccccc1`: 10.8 µM.
Next, `CC/C(=N\Nc1ccc([N+](=O)[O-])cc1)c1ccccc1`: 1.62 µM; `O=C1CC(O)(C(F)(F)F)Oc2c1ccc1ccccc21` (stereo unspecified): 0.814 µM.
Next, `Cc1onc(-c2c(Cl)cccc2Cl)c1C(=O)N/N=C(\N)COc1ccc(Cl)cc1`: 2.55 µM; `N#C/C(=C\c1cccc(Oc2ccccc2)c1)C(=O)N1CCOCC1`: 8.47 µM.
Take `CCCOc1ccc(N2C(=O)CC(N3CCC(C(=O)OCC)CC3)C2=O)cc1` (stereo unspecified): the AC40 was 6.17 µM.
Next, `O=C1Cc2ccccc2C(=O)N1CCc1ccccc1`: 10.5 µM.
Regarding `COc1cc2c(c(OC)c1OC)-c1ccc(O)c(=O)cc1[C@@H](N)CC2`, the AC40 was 0.936 µM.
As for `c1ccc(Cn2cc(-c3cccnc3)cn2)cc1`, the AC40 is 1.46 µM.
The figure for `Clc1cccc(-c2noc3ncnc(Nc4ccc5c(c4)OCO5)c23)c1` is 7.06 µM; for `Clc1ccc(OCc2nc(-c3ccncc3)no2)c(Br)c1` it is 0.95 µM; for `Cc1ccc(CN=Cc2[nH]c3ccc(Br)c(Cl)c3c2O)cc1` it is 9.03 µM.
The figure for `COc1ccc(/C=C(\C#N)c2c[nH]c3ccccc23)cc1` is 17.6 µM; for `S=C1SCN(Cc2cccnc2)CN1Cc1cccnc1` it is 1.01 µM; for `Cc1nn(-c2nnc(NC3CCCCC3)nn2)c(C)c1Br` it is 6.48 µM.
The figure for `O=C(Nc1cccnc1)c1ccc2ccccc2c1O` is 0.908 µM; for `O=NN(CCc1ccncc1)c1ccc(OCc2ccccc2)cc1` it is 2.98 µM; for `COC1=C(OC)C(=O)C(Sc2ccc3ccccc3c2)=CC1=O` it is 6.52 µM.
In the case of `CNc1ccc(C=C2C=Cc3ccccc32)cc1`, the AC40 was 0.998 µM.
The figure for `Cc1nnc(N/N=C/c2cccc(OCc3ccc(Cl)c(Cl)c3)c2)n1N` is 3.28 µM.
Next, `COc1ccc([C@H]2[C@H]3C=CC[C@@H](C)[C@@H]3C(=O)N2Cc2ccccc2)cc1Cl`: 4.57 µM; `CSc1nccc(NC(=O)c2ccc(C(C)(C)C)cc2)n1`: 7.82 µM.
Next, `c1ccc2c(-c3c[nH]c4ccccc34)c3ccccc3nc2c1`: 5.73 µM; `Cc1nc2c(nc1C)C(=O)c1ccccc1C2=O`: 13 µM.
Regarding `O=C1C=C(Nc2ccccc2O)c2ccccc2C1=O`, the AC40 is 12.6 µM.
The figure for `COc1ccccc1C1CCN(c2cc(O)ccc2[N+](=O)[O-])CC1` is 2.83 µM.
Next, `COc1ccc2c(c1)[C@H]1[C@H](CO2)[C@H](c2ccccc2)[C@]2(C)C(=O)Nc3ccc(Cl)cc3C(=O)N12`: 17.2 µM.
Next, `Cc1nc(Sc2ccc(Cl)cc2)c(C#N)c(C)c1[N+](=O)[O-]`: 0.937 µM.
Turning to `Clc1cccc(CON/C=N/c2ncnc3sccc23)c1`, the AC40 was 3.8 µM.
The figure for `O=C(COC(=O)c1ccc([N+](=O)[O-])o1)NCc1ccc(F)cc1` is 6.69 µM.
`C[C@@]12C(=O)Nc3ccc(F)cc3C(=O)N1[C@H]1c3ccccc3OC[C@@H]1[C@@H]2c1ccccc1`: the AC40 is 11.5 µM.
The figure for `C=CS(=O)(=O)c1sc(Cl)c(N2CCOCC2)c1[N+](=O)[O-]` is 0.653 µM; for `Cc1ccccc1N1CCN(C2=NC(=O)/C(=C\c3cccs3)S2)CC1` it is 4.83 µM.

The values are drawn from PubChem BioAssay AID624258 (Broad Institute, 2012).
